According to PubChem BioAssay (NCI):
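1) Cells in 96-well plates. 2) Compound, 48 h, 5 concentrations. 3) Linear interpolation between surrounding doses. 4) Unreached endpoint = highest concentration. At the TGI there is no net growth.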

Tests used:
Experiment in all cases: NCI tumour cell line growth inhibition, 48 h
M14 melanoma = test system: M14 melanoma
HS 578T breast = test system: HS 578T breast
TK-10 renal = test system: TK-10 renal
KM12 colon = test system: KM12 colon
NCI-H226 lung = test system: NCI-H226 lung
OVCAR-4 ovarian = test system: OVCAR-4 ovarian
EKVX NSCLC = test system: EKVX NSCLC
MCF7 breast = test system: MCF7 breast
SNB-19 CNS = test system: SNB-19 CNS
OVCAR-5 ovarian = test system: OVCAR-5 ovarian
HOP-92 NSCLC = test system: HOP-92 NSCLC
U251 CNS = test system: U251 CNS
MALME-3M melanoma = test system: MALME-3M melanoma
SK-MEL-5 melanoma = test system: SK-MEL-5 melanoma
NCI-H460 lung = test system: NCI-H460 lung
HCC-2998 colon = test system: HCC-2998 colon
HCT-15 colon = test system: HCT-15 colon
SN12C renal = test system: SN12C renal
SF-268 CNS = test system: SF-268 CNS
NCI-H522 lung = test system: NCI-H522 lung
COLO 205 colon = test system: COLO 205 colon
786-0 renal = test system: 786-0 renal
LOX IMVI melanoma = test system: LOX IMVI melanoma
SW-620 colon = test system: SW-620 colon
MDA-MB-435 = test system: MDA-MB-435
UACC-257 melanoma = test system: UACC-257 melanoma
SK-MEL-2 melanoma = test system: SK-MEL-2 melanoma
NCI/ADR-RES ovarian = test system: NCI/ADR-RES ovarian
CAKI-1 renal = test system: CAKI-1 renal
RXF 393 renal = test system: RXF 393 renal
SK-OV-3 ovarian = test system: SK-OV-3 ovarian
A549 NSCLC = test system: A549 NSCLC
K-562 leukemia = test system: K-562 leukemia
UO-31 renal = test system: UO-31 renal
IGROV1 ovarian = test system: IGROV1 ovarian
MDA-MB-231 breast = test system: MDA-MB-231 breast
HOP-62 NSCLC = test system: HOP-62 NSCLC
NCI-H23 lung = test system: NCI-H23 lung
SF-539 CNS = test system: SF-539 CNS
BT-549 breast = test system: BT-549 breast
OVCAR-3 ovarian = test system: OVCAR-3 ovarian
MDA-N = test system: MDA-N
MOLT-4 leukemia = test system: MOLT-4 leukemia
DU-145 prostate = test system: DU-145 prostate
CCRF-CEM leukemia = test system: CCRF-CEM leukemia
RPMI-8226 leukemia = test system: RPMI-8226 leukemia
ACHN renal = test system: ACHN renal
SK-MEL-28 melanoma = test system: SK-MEL-28 melanoma
SNB-75 CNS = test system: SNB-75 CNS
SF-295 CNS = test system: SF-295 CNS
A498 renal = test system: A498 renal
UACC-62 melanoma = test system: UACC-62 melanoma
HT29 colon = test system: HT29 colon
HL-60(TB) leukemia = test system: HL-60(TB) leukemia
PC-3 prostate = test system: PC-3 prostate
SR leukemia = test system: SR leukemia
OVCAR-8 ovarian = test system: OVCAR-8 ovarian
HCT-116 colon = test system: HCT-116 colon
T-47D breast = test system: T-47D breast

## Cc1ccc(-c2cc(-c3ccc(Cl)cc3)nc(/N=C3\C(=O)N(CN4CCOCC4)c4ccc(Cl)cc43)n2)cc1
M14 melanoma
  TGI: > 100 µM
HS 578T breast
  TGI: > 100 µM
TK-10 renal
  TGI: 72.2 µM
KM12 colon
  TGI: 56.8 µM
NCI-H226 lung
  TGI: > 100 µM
OVCAR-4 ovarian
  TGI: > 100 µM
EKVX NSCLC
  TGI: 89.4 µM
MCF7 breast
  TGI: 79.2 µM
SNB-19 CNS
  TGI: > 100 µM
OVCAR-5 ovarian
  TGI: > 100 µM
HOP-92 NSCLC
  TGI: 62.2 µM
U251 CNS
  TGI: 36.3 µM
MALME-3M melanoma
  TGI: > 100 µM
SK-MEL-5 melanoma
  TGI: 38.4 µM
NCI-H460 lung
  TGI: 81.2 µM
HCC-2998 colon
  TGI: 36.5 µM
HCT-15 colon
  TGI: > 100 µM
SN12C renal
  TGI: 59.1 µM
SF-268 CNS
  TGI: 88.1 µM
NCI-H522 lung
  TGI: 36.7 µM
COLO 205 colon
  TGI: 49.7 µM
786-0 renal
  TGI: 44.5 µM
LOX IMVI melanoma
  TGI: > 100 µM
SW-620 colon
  TGI: > 100 µM
MDA-MB-435
  TGI: 65.9 µM
UACC-257 melanoma
  TGI: > 100 µM
SK-MEL-2 melanoma
  TGI: 39.9 µM
NCI/ADR-RES ovarian
  TGI: 61.3 µM
CAKI-1 renal
  TGI: 85.5 µM
RXF 393 renal
  TGI: 26.9 µM
SK-OV-3 ovarian
  TGI: 84.4 µM
A549 NSCLC
  TGI: > 100 µM
K-562 leukemia
  TGI: 90.9 µM
UO-31 renal
  TGI: 60.3 µM
IGROV1 ovarian
  TGI: 33.1 µM
MDA-MB-231 breast
  TGI: > 100 µM
HOP-62 NSCLC
  TGI: 51.8 µM
NCI-H23 lung
  TGI: 57.6 µM
SF-539 CNS
  TGI: 59.5 µM
BT-549 breast
  TGI: > 100 µM
OVCAR-3 ovarian
  TGI: > 100 µM
MDA-N
  TGI: > 100 µM
MOLT-4 leukemia
  TGI: 57 µM
DU-145 prostate
  TGI: 47.7 µM
CCRF-CEM leukemia
  TGI: > 100 µM
RPMI-8226 leukemia
  TGI: > 100 µM
ACHN renal
  TGI: 48.5 µM
SK-MEL-28 melanoma
  TGI: > 100 µM
SNB-75 CNS
  TGI: 97.1 µM
SF-295 CNS
  TGI: > 100 µM
A498 renal
  TGI: 56.7 µM
UACC-62 melanoma
  TGI: 93.2 µM
HT29 colon
  TGI: 43.6 µM
HL-60(TB) leukemia
  TGI: 41.4 µM
PC-3 prostate
  TGI: > 100 µM
SR leukemia
  TGI: > 100 µM
OVCAR-8 ovarian
  TGI: 55.4 µM
HCT-116 colon
  TGI: 40.9 µM
T-47D breast
  TGI: 79.8 µM

## NCCCNCCCCNCCCN
M14 melanoma
  TGI: 29.4 µM
HS 578T breast
  TGI: 98 µM
TK-10 renal
  TGI: 18.9 µM
KM12 colon
  TGI: > 100 µM
NCI-H226 lung
  TGI: > 100 µM
OVCAR-4 ovarian
  TGI: > 21.8 µM
EKVX NSCLC
  TGI: 38.6 µM
MCF7 breast
  TGI: 13.1 µM
SNB-19 CNS
  TGI: > 100 µM
OVCAR-5 ovarian
  TGI: > 100 µM
HOP-92 NSCLC
  TGI: 3.41 µM
U251 CNS
  TGI: > 63.7 µM
MALME-3M melanoma
  TGI: > 100 µM
SK-MEL-5 melanoma
  TGI: > 100 µM
NCI-H460 lung
  TGI: > 100 µM
HCC-2998 colon
  TGI: > 76.7 µM
HCT-15 colon
  TGI: 7.63 µM
SN12C renal
  TGI: 15.4 µM
SF-268 CNS
  TGI: > 92.9 µM
NCI-H522 lung
  TGI: 0.879 µM
COLO 205 colon
  TGI: 11.8 µM
786-0 renal
  TGI: 2.79 µM
LOX IMVI melanoma
  TGI: 30.5 µM
SW-620 colon
  TGI: 14 µM
MDA-MB-435
  TGI: > 68.2 µM
UACC-257 melanoma
  TGI: > 100 µM
SK-MEL-2 melanoma
  TGI: > 100 µM
NCI/ADR-RES ovarian
  TGI: > 91.6 µM
CAKI-1 renal
  TGI: 11.6 µM
RXF 393 renal
  TGI: 28.3 µM
SK-OV-3 ovarian
  TGI: > 53.9 µM
A549 NSCLC
  TGI: > 100 µM
K-562 leukemia
  TGI: > 21.2 µM
UO-31 renal
  TGI: 5.02 µM
IGROV1 ovarian
  TGI: 33.8 µM
MDA-MB-231 breast
  TGI: > 60.8 µM
HOP-62 NSCLC
  TGI: > 100 µM
NCI-H23 lung
  TGI: > 100 µM
SF-539 CNS
  TGI: 34.3 µM
BT-549 breast
  TGI: > 24.5 µM
OVCAR-3 ovarian
  TGI: > 20.1 µM
MDA-N
  TGI: 41.5 µM
MOLT-4 leukemia
  TGI: 17.5 µM
DU-145 prostate
  TGI: 23.2 µM
CCRF-CEM leukemia
  TGI: 5.72 µM
RPMI-8226 leukemia
  TGI: 1.59 µM
ACHN renal
  TGI: 9.22 µM
SNB-75 CNS
  TGI: > 100 µM
SF-295 CNS
  TGI: > 100 µM
A498 renal
  TGI: > 100 µM
UACC-62 melanoma
  TGI: > 100 µM
HT29 colon
  TGI: 76.5 µM
HL-60(TB) leukemia
  TGI: 15.2 µM
PC-3 prostate
  TGI: > 100 µM
SR leukemia
  TGI: > 36.8 µM
OVCAR-8 ovarian
  TGI: > 100 µM
HCT-116 colon
  TGI: 8.78 µM
T-47D breast
  TGI: 5.91 µM

## CC(=O)Nc1ccc(-c2nc3cc(Cl)ccc3o2)cc1
M14 melanoma
  TGI: > 50 µM
HS 578T breast
  TGI: > 50 µM
TK-10 renal
  TGI: > 50 µM
KM12 colon
  TGI: > 50 µM
NCI-H226 lung
  TGI: > 50 µM
OVCAR-4 ovarian
  TGI: > 50 µM
EKVX NSCLC
  TGI: > 50 µM
MCF7 breast
  TGI: > 50 µM
SNB-19 CNS
  TGI: > 50 µM
OVCAR-5 ovarian
  TGI: > 50 µM
HOP-92 NSCLC
  TGI: > 50 µM
U251 CNS
  TGI: > 50 µM
MALME-3M melanoma
  TGI: > 50 µM
SK-MEL-5 melanoma
  TGI: > 50 µM
NCI-H460 lung
  TGI: > 50 µM
HCC-2998 colon
  TGI: > 50 µM
HCT-15 colon
  TGI: > 50 µM
SN12C renal
  TGI: > 50 µM
SF-268 CNS
  TGI: > 50 µM
NCI-H522 lung
  TGI: > 50 µM
COLO 205 colon
  TGI: > 50 µM
786-0 renal
  TGI: > 50 µM
LOX IMVI melanoma
  TGI: > 50 µM
SW-620 colon
  TGI: > 50 µM
MDA-MB-435
  TGI: > 50 µM
UACC-257 melanoma
  TGI: > 50 µM
SK-MEL-2 melanoma
  TGI: > 50 µM
NCI/ADR-RES ovarian
  TGI: > 50 µM
CAKI-1 renal
  TGI: > 50 µM
RXF 393 renal
  TGI: > 50 µM
SK-OV-3 ovarian
  TGI: > 50 µM
A549 NSCLC
  TGI: > 50 µM
K-562 leukemia
  TGI: > 50 µM
UO-31 renal
  TGI: > 50 µM
IGROV1 ovarian
  TGI: > 50 µM
MDA-MB-231 breast
  TGI: > 50 µM
HOP-62 NSCLC
  TGI: > 50 µM
NCI-H23 lung
  TGI: > 50 µM
SF-539 CNS
  TGI: > 50 µM
BT-549 breast
  TGI: > 50 µM
OVCAR-3 ovarian
  TGI: > 50 µM
MDA-N
  TGI: > 50 µM
MOLT-4 leukemia
  TGI: > 50 µM
DU-145 prostate
  TGI: > 50 µM
CCRF-CEM leukemia
  TGI: > 50 µM
RPMI-8226 leukemia
  TGI: > 50 µM
ACHN renal
  TGI: > 50 µM
SK-MEL-28 melanoma
  TGI: > 50 µM
SNB-75 CNS
  TGI: > 50 µM
SF-295 CNS
  TGI: > 50 µM
A498 renal
  TGI: > 50 µM
UACC-62 melanoma
  TGI: > 50 µM
HT29 colon
  TGI: > 50 µM
HL-60(TB) leukemia
  TGI: > 50 µM
PC-3 prostate
  TGI: > 50 µM
SR leukemia
  TGI: > 50 µM
OVCAR-8 ovarian
  TGI: > 50 µM
HCT-116 colon
  TGI: > 50 µM
T-47D breast
  TGI: > 50 µM
